The values below come from patent publication US5804576A, “Derivatives of 5-androsten-17-ones and 5-androstan-17-ones” (Research Corporation Technologies, Inc., priority 1986, dated 1998).

Several values for one entry are separate records, joined by “and”; a condition that tells them apart may be missing. Identical values can stand only once. Entries after “also recorded” stand apart in the source; their conditions may differ.

Series [1] relates to TPA stimulation of 3H-thymidine incorporation in epidermis. Put plainly: Inhibition of TPA stimulation of 3H-thymidine incorporation in epidermis, topical steroid. Format: in vivo, mouse (A/J). As for the experimental part: Tumor promoters, such as TPA, stimulate hyperplasia and DNA synthesis when applied to the skin, and it is believed that this stimulation is an important step in the enhancement of tumorigenesis.
Incorporation of ^3 H-thymidine into A/J mouse epidermal DNA was determined as described in Pashko, L. L., Schwartz, A. G., Abou-Gharbia, M. and Swern, D. (1981), Inhibition of DNA synthesis in mouse epidermis and breast epithelium by dehydroepiandrosterone and related steroids, Carcinogenesis, 2, 717-721. Values are mean±SD for 3 separately treated mice in each group 20 hours after TPA application. DHEA or testosterone was added topically in 0.2 ml acetone one hour before TPA addition.

Series [2] has as its system [3H]DMBA binding to skin DNA. Put plainly: [3H]DMBA binding to skin DNA, oral steroid. It is filed as in vivo, mouse (male A/J). The procedure:
Male A/J mice were orally intubated with steroid suspended in sesame oil (0.5 ml/mouse) at the indicated dose. Mice not receiving steroid were given sesame oil alone. Food restricted mice received approximately 60% of food of Ad libitum fed for two weeks. One hour after oral intubation, topical [^3 H]DMBA was applied to the skin, and the amount bound to DNA was determined 12 hours later as described in Table 4.
Male A/J mice were orally intubated with steroid suspended in sesame oil (0.5 ml/mouse) at the indicated dose. Mice not receiving steroid were given sesame oil alone. One hour after oral intubation, topical [^3 H]DMBA was applied to the skin, and the amount bound to DNA was determined 12 hours later as described in Table 4.

The subject of a further series is C57BL/KsJ-db/db mice. Particulars: 0.4% of the diet; cited from earlier work.
The subject of series [3] is seminal vesicles plus prostate glands. Put plainly: Androgenic and anti-androgenic activity (seminal vesicle plus prostate weight). Format: in vivo, mouse (male A/J). The following applies: con't. experiment; five weeks; DHEA 0.54%; n = 5.
Series [4] deals with mammalian glucose-6-phosphate dehydrogenase (G6PDH). Particulars: cited from earlier work.
The test system of series [5] is many different cell lines in culture. Particulars: 10^-5 M to 10^-4 M; cited from earlier work.
For series [6], the system named is breast, lung, and colon tumors. Particulars: approximately 400 mg/kg daily, long-term; cited from earlier work.
For another series, the system named is VY-A^vy /a mice. Particulars: long-term administration; cited from earlier work.
Another series has as its system cholesterol. The following applies: mouse, in vivo; cited from earlier work.
The subject of series [7] is Epstein-Barr virus-induced transformation of human lymphocytes. Particulars: cited from earlier work.
The test system of series [8] is New Zealand Black (NZB) mice. Particulars: long-term treatment; cited from earlier work.
In another series the test system is rat uterus. Particulars: 60 mg/kg s.c. for 3 days, sexually immature rats; cited from earlier work.
In series [9] the test system is rat uterus; mouse seminal vesicle plus prostate. Particulars: prolonged administration; cited from earlier work.

Take `C[C@]12CC[C@H](O)CC1=CC[C@@H]1[C@@H]2CC[C@]2(C)C(=O)CC[C@@H]12` [DHEA, 3β-Hydroxy-5-androst-en-17-one, reference compound]: the “TPA stimulation of epidermal DNA synthesis (in words)” value in [1] is given as “abolishes this stimulation”. Further, the “SPECIFIC ACTIVITY ([3H]DMBA bound to skin DNA)” value in series [2] (400 mg/kg p.o., 12 hours) is 73.1 ± 16.5 cpm/ug DNA and 92 ± 17.6 cpm/ug DNA. The “3H-DMBA binding to skin DNA (in words)” value in series [2] (oral, single administration) is “does not inhibit ^3 H-DMBA binding to skin DNA; also recorded: inactive”. In the series with C57BL/KsJ-db/db mice, the “hypoglycemic effect (in words)” value is “marked hypoglycemic effect” and the “lifespan (in words)” value is listed as “significantly prolonged their lifespan”. Moreover, the “Mean Seminal Vesicle plus Prostate Weight ± S.D.” value in series [3] is given as 5.02 ± 0.41 mg/100 gm body weight. For the same compound, in [4], the “inhibition of mammalian G6PDH (in words)” value is recorded as “potent non-competitive inhibitor of mammalian glucose-6-phosphate dehydrogenase”. Moreover, in series [5], the “growth of cell lines in culture (in words)” value is on record as “slows the growth of many different cell lines in culture”. Further, the “tumor development (in words)” value in series [6] was “inhibit the development of breast, lung, and colon tumors”. Also, the “development of obesity (in words)” value in the series with VY-A^vy /a mice is “prevented the development of obesity without suppressing appetite”. Besides, the “anti-hypercholesterolemic effect (in words)” value in the series on cholesterol is “anti-hypercholesterolemic effect”. The “inhibition of Epstein-Barr virus-induced transformation (in words)” value in series [7] is given as “inhibitors of Epstein-Barr virus-induced transformation of human lymphocytes”. The “rate of development of the autoimmune anemia (in words)” value in series [8] is listed as “significantly inhibits the rate of development of the autoimmune anemia”. In addition, the “uterine enlargement (in words)” value in the series with rat uterus was “produces uterine enlargement”. The “estrogenic effect (in words)” value in series [9] is “evidence of an estrogenic effect after prolonged administration”.
